{
  "source": "patent US10543503B1",
  "about": "“Methods of delivery of encapsulated perfluorocarbon taggants” (Copilot Ventures Fund III LLC, priority 2011, dated 2020)",
  "origin": "cited, not measured here",
  "key": {"[1]": {"system": "benzphetamine-N-demethylase", "settings": "rats, following PFD treatment"}, "cytochrome P450 IV": {"system": "cytochrome P450 IV", "settings": "rats, following PFD treatment; enzyme induced by fatty acids and perfluoronated fatty acids"}, "aldrin-epoxidase": {"system": "aldrin-epoxidase", "settings": "rats, following PFD treatment"}, "[2]": {"system": "cytochrome P-450 IIA1 and IIA2 (a.k.a. cytochrome P450b and cytochrome P450e)", "settings": "rats, following PFD treatment"}, "[3]": {"system": "cytochrome P-450 IA1 and IA1", "settings": "rats, following PFD treatment; enzymes induced by 3-methylcholanthrene-type inducers"}, "cytochrome P-450": {"system": "cytochrome P-450", "settings": "PFD given to rats; hepatic metabolizing enzymes"}},
  "data": [
    {"smiles": "FC1(F)C(F)(F)C(F)(F)C2(F)C(F)(F)C(F)(F)C(F)(F)C(F)(F)C2(F)C1(F)F", "note": "(stereo not drawn) [PFD, perfluorodecalin]", "values": [
      {"measurement": "activity of benzphetamine-N-demethylase", "setting": "[1]", "value": "increased"},
      {"measurement": "activity of cytochrome P450 IV", "setting": "cytochrome P450 IV", "value": "unaffected"},
      {"measurement": "activity of aldrin-epoxidase", "setting": "aldrin-epoxidase", "value": "increased"},
      {"measurement": "increase of activities of cytochrome P-450 IIA1 and IIA2", "setting": "[2]", "value": "approximately two-fold"},
      {"measurement": "activities of cytochrome P-450 IA1 and IA1", "setting": "[3]", "value": "unaffected"},
      {"measurement": "induction of cytochrome P-450", "setting": "cytochrome P-450", "value": "induce cytochrome P-450 in a manner similar to phenobarbital"}
    ]}
  ]
}
